Measurements as given in US7863449B2, “Modulators of muscarinic receptors” (Vertex Pharmaceuticals Incorporated, priority 2004, dated 2011).
Counter-ions that a name gives are not always drawn. Blank lines part the entries; values can stand above or below the compound they belong to.

Tests used:
M4 muscarinic receptor = target: T1, M4 muscarinic receptor (Homo sapiens, UniProt P08173); assay: Functional mobilization of intracellular calcium (FLIPR), M4-CHO cells; format: cell-based; conditions: for Emax: 100% efficacy is the maximum response obtained using Carbachol as a control; for M4 Activity: M4-CHO cells, FLIPR calcium mobilization
T1 construct: expressed in transfected cells; host or cells: CHO (M4-CHO)
T1 sequence (P08173 1-479): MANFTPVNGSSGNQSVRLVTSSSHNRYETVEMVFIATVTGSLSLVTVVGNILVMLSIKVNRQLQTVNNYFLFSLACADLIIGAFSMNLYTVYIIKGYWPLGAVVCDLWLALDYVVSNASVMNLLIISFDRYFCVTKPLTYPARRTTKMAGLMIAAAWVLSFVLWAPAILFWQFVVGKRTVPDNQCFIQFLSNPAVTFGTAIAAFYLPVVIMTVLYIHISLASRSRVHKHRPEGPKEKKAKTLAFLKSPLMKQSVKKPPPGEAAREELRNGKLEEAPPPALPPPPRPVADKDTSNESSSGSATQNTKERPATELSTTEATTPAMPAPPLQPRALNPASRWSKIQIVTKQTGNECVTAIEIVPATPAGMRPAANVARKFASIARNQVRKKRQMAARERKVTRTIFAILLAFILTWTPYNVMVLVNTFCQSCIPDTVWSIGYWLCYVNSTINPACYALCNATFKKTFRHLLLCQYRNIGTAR
In short: (§1)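 Calcium flux recorded 60 s (ex 488, em 540 nm) in dye-loaded M1- or M4-CHO cells in pH 7.4 buffer with 1 mM probenecid. Inhibition measured against carbachol EC80 after 15 min compound pre-incubation or co-addition; agonism measured by compound addition alone. Final DMSO 0.5%.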

M1 muscarinic receptor = target: T2, M1 muscarinic receptor (Homo sapiens, UniProt P11229); assay: Functional mobilization of intracellular calcium (FLIPR), M1-CHO cells; format: cell-based; conditions: for Emax: 100% efficacy is the maximum response obtained using Carbachol as a control; for M1 Activity: M1-CHO cells, FLIPR calcium mobilization
T2 construct: expressed in transfected cells; host or cells: CHO (M1-CHO)
T2 sequence (P11229 1-460): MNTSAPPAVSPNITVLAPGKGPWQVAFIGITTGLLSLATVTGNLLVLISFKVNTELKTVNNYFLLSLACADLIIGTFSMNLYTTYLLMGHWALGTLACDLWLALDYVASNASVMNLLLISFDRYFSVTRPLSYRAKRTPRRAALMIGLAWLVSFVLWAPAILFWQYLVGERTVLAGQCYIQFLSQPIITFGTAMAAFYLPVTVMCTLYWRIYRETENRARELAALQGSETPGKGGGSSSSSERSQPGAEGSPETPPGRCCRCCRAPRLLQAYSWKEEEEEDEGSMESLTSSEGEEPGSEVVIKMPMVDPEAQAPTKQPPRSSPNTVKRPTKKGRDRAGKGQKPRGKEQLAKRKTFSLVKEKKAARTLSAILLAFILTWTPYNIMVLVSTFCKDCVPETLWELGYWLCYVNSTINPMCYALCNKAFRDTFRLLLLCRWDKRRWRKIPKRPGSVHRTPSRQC
In short: as §1

Compound: CCOC(=O)N1CCC(N2CCC3(CC2)CN(C(=O)OC2CCC2)Cc2ccccc23)CC1 [compound 202]
Emax (M4 muscarinic receptor): 25 to 100%
M4 Activity (M4 muscarinic receptor): +++ (activity was measured to be less than 1.0 μM)
Emax (M1 muscarinic receptor): 25 to 100%
M1 Activity (M1 muscarinic receptor): +++ (activity was measured to be less than 1.0 μM)

Compound: CC(=O)N1Cc2ccccc2C2(CCN(CC3CCOCC3)CC2)C1 [compound 182]
Emax (M4 muscarinic receptor): < 25%
M4 Activity (M4 muscarinic receptor): + (activity was measured to be greater than 5.0 μM)
Emax (M1 muscarinic receptor): < 25%
M1 Activity (M1 muscarinic receptor): + (activity was measured to be greater than 5.0 μM)

Compound: CC(=O)N1Cc2ccccc2C2(CCN(C3CCN(C(=O)O[C@H]4CCOC4)CC3)CC2)C1 [compound 302]
Emax (M4 muscarinic receptor): 25 to 100%
M4 Activity (M4 muscarinic receptor): +++ (activity was measured to be less than 1.0 μM)
Emax (M1 muscarinic receptor): 25 to 100%
M1 Activity (M1 muscarinic receptor): +++ (activity was measured to be less than 1.0 μM)

Compound: CCOC(=O)N1CCC(CN2CCC3(CC2)CN(S(C)(=O)=O)Cc2ccccc23)CC1 [compound 70]
Emax (M4 muscarinic receptor): 25 to 100%
M4 Activity (M4 muscarinic receptor): +++ (activity was measured to be less than 1.0 μM)
Emax (M1 muscarinic receptor): 25 to 100%
M1 Activity (M1 muscarinic receptor): +++ (activity was measured to be less than 1.0 μM)

Compound: CCOC(=O)N1C2CCC1CC(N1CCC3(CC1)CN(C(=O)C(O)(CC)CC)Cc1ccccc13)C2 (stereo not drawn) [compound 190]
Emax (M4 muscarinic receptor): 25 to 100%
M4 Activity (M4 muscarinic receptor): +++ (activity was measured to be less than 1.0 μM)
Emax (M1 muscarinic receptor): 25 to 100%
M1 Activity (M1 muscarinic receptor): +++ (activity was measured to be less than 1.0 μM)

Compound: CCOC(=O)N1CCC(CN2CCC3(CC2)CN(C(=O)CC)Cc2ccccc23)CC1 [compound 63]
Emax (M4 muscarinic receptor): 25 to 100%
M4 Activity (M4 muscarinic receptor): +++ (activity was measured to be less than 1.0 μM)
Emax (M1 muscarinic receptor): 25 to 100%
M1 Activity (M1 muscarinic receptor): +++ (activity was measured to be less than 1.0 μM)

Compound: CCOC(=O)N1CCC(CN2CCC3(CC2)CN(C(C)=O)Cc2ccccc23)CC1 [compound 198, Ethyl 4-((2-acetyl-2,3-dihydro-1H-spiro[isoquinoline-4,4′-piperidine]-1′-yl)methyl)piperidine-1-carboxylate hydrochloride]
Emax (M4 muscarinic receptor): 25 to 100%
M4 Activity (M4 muscarinic receptor): +++ (activity was measured to be less than 1.0 μM)
Emax (M1 muscarinic receptor): 25 to 100%
M1 Activity (M1 muscarinic receptor): +++ (activity was measured to be less than 1.0 μM)

Compound: CC(=O)N1Cc2ccccc2C2(CCN(Cc3cccnc3)CC2)C1 [compound 274]
Emax (M4 muscarinic receptor): < 25%
M4 Activity (M4 muscarinic receptor): + (activity was measured to be greater than 5.0 μM)
Emax (M1 muscarinic receptor): < 25%
M1 Activity (M1 muscarinic receptor): + (activity was measured to be greater than 5.0 μM)

Compound: O=C(OC1CCC1)N1Cc2ccccc2C2(CCN(C3CC4CCC(C3)N4C(=O)O[C@H]3CCOC3)CC2)C1 (stereo partly drawn) [compound 212]
M4 Activity (M4 muscarinic receptor): +++ (activity was measured to be less than 1.0 μM)
M1 Activity (M1 muscarinic receptor): +++ (activity was measured to be less than 1.0 μM)

Compound: CCOC(=O)N1C2CCC1CC(N1CCC3(CC1)CN(C(=O)C1(C(F)(F)F)CC1)Cc1ccccc13)C2 (stereo not drawn) [compound 64]
Emax (M4 muscarinic receptor): 25 to 100%
M4 Activity (M4 muscarinic receptor): +++ (activity was measured to be less than 1.0 μM)
Emax (M1 muscarinic receptor): 25 to 100%
M1 Activity (M1 muscarinic receptor): +++ (activity was measured to be less than 1.0 μM)

Compound: CC(=O)N1Cc2ccccc2C2(CCN(CC3CCN(C(=O)OC4CCCC4)CC3)CC2)C1 [compound 252]
Emax (M4 muscarinic receptor): < 25%
M4 Activity (M4 muscarinic receptor): + (activity was measured to be greater than 5.0 μM)
Emax (M1 muscarinic receptor): < 25%
M1 Activity (M1 muscarinic receptor): + (activity was measured to be greater than 5.0 μM)

Compound: CCOC(=O)N1C2CCC1CC(N1CCC3(CC1)CN(S(=O)(=O)c1ccc(C(F)(F)F)cc1)Cc1ccccc13)C2 (stereo not drawn) [compound 251]
Emax (M4 muscarinic receptor): 25 to 100%
M4 Activity (M4 muscarinic receptor): +++ (activity was measured to be less than 1.0 μM)
Emax (M1 muscarinic receptor): 25 to 100%
M1 Activity (M1 muscarinic receptor): +++ (activity was measured to be less than 1.0 μM)

Emax (M4 muscarinic receptor): < 25%
Emax (M1 muscarinic receptor): 25 to 100%
Compound: CC(C)(C)CCN1CCC2(CC1)c1ccccc1C(=O)N2Cc1ccccc1 [compound 130]
M4 Activity (M4 muscarinic receptor): + (activity was measured to be greater than 5.0 μM)
M1 Activity (M1 muscarinic receptor): ++ (activity was measured to be from 1.0 μM to 5.0 μM)

Compound: CC(=O)N1Cc2ccccc2C2(CCN(Cc3sccc3C)CC2)C1 [compound 142]
Emax (M4 muscarinic receptor): < 25%
M4 Activity (M4 muscarinic receptor): + (activity was measured to be greater than 5.0 μM)
Emax (M1 muscarinic receptor): < 25%
M1 Activity (M1 muscarinic receptor): + (activity was measured to be greater than 5.0 μM)

Compound: CCOC(=O)N1CCC(N2CCC3(CC2)CN(C(=O)NC2CCCC2)Cc2ccccc23)CC1 [compound 283]
Emax (M4 muscarinic receptor): 25 to 100%
M4 Activity (M4 muscarinic receptor): +++ (activity was measured to be less than 1.0 μM)
Emax (M1 muscarinic receptor): 25 to 100%
M1 Activity (M1 muscarinic receptor): +++ (activity was measured to be less than 1.0 μM)

Compound: O=C1OC2(CCN(C[C@H]3C[C@H]4C=C[C@H]3C4)CC2)c2ccc(Cl)cc21 [compound 19]
Emax (M4 muscarinic receptor): < 25%
M4 Activity (M4 muscarinic receptor): ++ (activity was measured to be from 1.0 μM to 5.0 μM)
Emax (M1 muscarinic receptor): 25 to 100%
M1 Activity (M1 muscarinic receptor): ++ (activity was measured to be from 1.0 μM to 5.0 μM)

Compound: CCOC(=O)N1CCC(CN2CCC3(CC2)CN(C(=O)c2cnon2)Cc2ccccc23)CC1 [compound 329]
Emax (M4 muscarinic receptor): 25 to 100%
M4 Activity (M4 muscarinic receptor): +++ (activity was measured to be less than 1.0 μM)
Emax (M1 muscarinic receptor): 25 to 100%
M1 Activity (M1 muscarinic receptor): +++ (activity was measured to be less than 1.0 μM)

Compound: CCOC(=O)N1CCC(N2CCC3(CC2)CN(CC#Cc2ccccc2)Cc2ccccc23)CC1 [compound 9]
Emax (M4 muscarinic receptor): 25 to 100%
M4 Activity (M4 muscarinic receptor): +++ (activity was measured to be less than 1.0 μM)
Emax (M1 muscarinic receptor): 25 to 100%
M1 Activity (M1 muscarinic receptor): +++ (activity was measured to be less than 1.0 μM)

Compound: CC(=O)N1Cc2ccccc2C2(CCN(Cc3cc4ccccc4o3)CC2)C1 [compound 217]
Emax (M4 muscarinic receptor): < 25%
M4 Activity (M4 muscarinic receptor): + (activity was measured to be greater than 5.0 μM)
Emax (M1 muscarinic receptor): < 25%
M1 Activity (M1 muscarinic receptor): + (activity was measured to be greater than 5.0 μM)

Compound: CN(C)S(=O)(=O)N1Cc2ccccc2C2(CCN(C3CC4CCC(C3)N4C(=O)O[C@@H]3CCOC3)CC2)C1 (stereo partly drawn) [compound 3]
Emax (M4 muscarinic receptor): 25 to 100%
M4 Activity (M4 muscarinic receptor): +++ (activity was measured to be less than 1.0 μM)
Emax (M1 muscarinic receptor): 25 to 100%
M1 Activity (M1 muscarinic receptor): +++ (activity was measured to be less than 1.0 μM)
